Source: US5270302A, “Derivatives of tetrapeptides as CCK agonists” (priority 1991, dated 1993)
*1 amine or outer side, *2 acyl side, *3 side chain or, on linkers, in order; H or OH if unused. Where a SMILES comes first, the peptide text is derived from it. Side-chain parts run from the residue outwards. [ ]: non-standard residue; d: D form. The star is where a group is joined. 2Naphthoyl(6-OH) = O=C(c1ccc2cc(O)ccc2c1)*; Desaminotyrosyl = O=C(CCc1ccc(O)cc1)*; NH(1-naphthyl) = c1ccc2c(N*)cccc2c1; NMeF = CN[C@@H](Cc1ccccc1)C(=O)O; X11 = O=C(C=Cc1ccc(Cl)c(Cl)c1)*; NMeD = CN[C@@H](CC(=O)O)C(=O)O; NH(2-Me-phenyl) = Cc1ccccc1N*; X18 = O=C(/C=C/c1ccc(Cl)cc1)*; X14 = O=[N+]([O-])c1ccccc1N*; X8 = O=C(C=Cc1ccc(O)c(O)c1)*; X7 = Cc1ccc(/C=C/C(=O)*)cc1; X13 = O=C(C=Cc1ccc(F)cc1)*; X21 = O=C(C=Cc1cccc(O)c1)*; X1 = O=C(C=Cc1ccc(O)cc1)*; 3Abz = Nc1cccc(C(=O)O)c1; X26 = Clc1cccc(Cl)c1N*; Boc = CC(C)(C)OC(=O)*; X24 = CC(C)c1ccccc1N*; CO = O=C([*:1])[*:2]; X16 = COc1ccccc1N*; X19 = Brc1ccccc1N*

Each compound was assayed against T1, Type-B CCK receptor (Cavia porcellus, UniProt H0VZC5) (assay: Radioligand binding of [125I]BH-CCK-8 in guinea pig cerebral cortical membrane preparations). Conditions: not given.
T1 construct: Cortical and pancreatic membranes were prepared as described; from tissue; host or cells: guinea pig cerebral cortex membranes
T1 sequence (H0VZC5 1-426): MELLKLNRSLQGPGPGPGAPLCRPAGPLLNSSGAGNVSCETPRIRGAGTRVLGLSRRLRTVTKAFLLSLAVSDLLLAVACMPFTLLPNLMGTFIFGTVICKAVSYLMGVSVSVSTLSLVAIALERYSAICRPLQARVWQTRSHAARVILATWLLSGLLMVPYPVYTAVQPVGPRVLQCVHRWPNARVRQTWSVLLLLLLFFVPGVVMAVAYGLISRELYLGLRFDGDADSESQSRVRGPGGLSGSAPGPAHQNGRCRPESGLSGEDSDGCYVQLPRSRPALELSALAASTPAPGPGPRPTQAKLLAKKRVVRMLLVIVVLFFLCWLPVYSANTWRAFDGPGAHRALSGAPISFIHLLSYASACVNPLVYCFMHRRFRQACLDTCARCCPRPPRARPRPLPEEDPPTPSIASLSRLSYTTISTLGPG
Text: (§1) CCK-8 [Asp-Tyr(SO3 H)-Met-Gly-Trp-Met-Asp-PheNH2 ], bestatin and phosphoramidion were purchased from Peptide International (Louisville, Ky.). EGTA (ethylene glycol-bis-(β-aminoethyl) N,N,N',N'-tetraacetic acid), HEPES (4-(2-hydroxyethyl)-1-piperazine-enthanesulfonic acid) and BSA (bovine serum albumin) were purchased from Sigma Chemical Co. (St. Louis, Mo.). [^125 I]-Bolton-Hunteer (BH-CCK-8) (specific activity, 2200 Ci/mmol) was obtained from New England Nuclear (Boston, Mass.). Male guinea pigs, 250 to 325 g, were obtained from Scientific Small Animal Laboratory and Farm (Arlington Heights, Ill.). Collagenase, code CLSPA was purchased from Worthington (Frehold, N.J.).
(§2) Protocol For Radioligand Binding Experiments in Guinea Pig Cerebral Cortical and Pancreatic Membrane Preparations
(§3) Cortical and pancreatic membranes were prepared as described (Lin and Miller; J. Pharmacol. Exp. Ther. 1985, 232:775-780,). In brief, cortex and pancreas were removed and rinsed with ice-cold saline. Visible fat and connective tissues were removed from the pancreas. […] The homogenates were entrifuged for 10 minutes at 1075×g and pellets were discarded. The supernatants were saved and centrifuged at 38,730×g for 20 minutes. The resultant pellets were rehomogenized in 25 mL of 50 mM Tris-HCl buffer with a Teflon-glass homogenizer, 5 up and down strokes. The homogenates were centrifuged again at 38,730×g for 20 minutes. Pellets werre then resuspended in 20 mM HEPES, containing 1 mM EGTA, 118 mM NaCl, 4.7 mM KCl, 5 mM MgCl2, 100 μM bestatin, 3 μM phosphoramidon, pH 7.4 at 22° C. with a Teflon-glass homogenizer, 15 up and down strokes. Resuspension volume for the cortex was 15-18 mL per gram of original wet weight and 60 mL per gram for the pancreas.
(§4) [^125 I]Bolton-Hunter CCK-8 and test compounds were diluted with HEPES-EGTA-salt buffer (see above) containing 0.5% BSA. To 1 mL Skatron polystyrene tubes were added 25 μL of test compounds, 25 μL of [^125 I]BH-CCK-8 and 200 μL of membrane suspension. The final BSA concentration was 0.1%. The cortical tissues were incubated at 30° C. for 150 minutes and pancreatic tissues were incubated at 37° C. for 150 min. Incubations were terminated by filtration using Skatron Cell Harvester and SS32 microfiber filter mats. […] IC50 s were determined from the Hill analysis.
`CC(C)(C)OC(=O)N[C@@H](Cc1c[nH]c2ccccc12)C(=O)N[C@@H](CCCCNC(=O)Nc1cccc2ccccc12)C(=O)N[C@@H](CC(=O)O)C(=O)N[C@@H](Cc1ccccc1)C(N)=O` [Example 28, t-BOC-Trp-Lys(ε-N-(α-naphthyl)aminocarbonyl)-Asp-PheNH2] (Boc-WK([CO-NH(1-naphthyl)])DF-NH2) was tested, and the IC50 was 10000 nM.

Same assay, conditions: guinea pig cortical membranes, 30° C., 150 minutes; read-out: IC50 (nM) 125I-BH-CCK-8 Type-B receptor
`COC(=O)c1cccc(NC(=O)NCCCC[C@H](NC(=O)[C@H](Cc2c[nH]c3ccccc23)NC(=O)OC(C)(C)C)C(=O)N[C@@H](CC(=O)O)C(=O)N[C@@H](Cc2ccccc2)C(N)=O)c1` [Example 46, t-BOC-Trp-Lys(ε-N-(3-(methoxycarbonyl)phenyl)aminocarbonyl)-Asp-PheNH2] (Boc-WK([CO-3Abz-OMe])DF-NH2) gave an IC50 of 1400 nM.
`CC(C)(C)OC(=O)N[C@@H](Cc1c[nH]c2ccccc12)C(=O)N[C@@H](CCCC/N=C(\S)Nc1ccccc1Cl)C(=O)N[C@@H](CC(=O)O)C(=O)N[C@@H](Cc1ccccc1)C(N)=O` [Example 37, t-BOC-Trp-Lys(ε-N-(2-chlorophenyl)aminothiocarbonyl)-Asp-PheNH2] showed an IC50 of 2900 nM.
`CC(C)(C)OC(=O)N[C@@H](Cc1c[nH]c2ccccc12)C(=O)N[C@@H](CCCCNC(=O)Nc1c(Cl)cccc1Cl)C(=O)N[C@@H](CC(=O)O)C(=O)N[C@@H](Cc1ccccc1)C(N)=O` [Example 47, t-BOC-Trp-Lys(ε-N-(2,6-dichlorophenyl)aminocarbonyl)-Asp-PheNH2] (Boc-WK([CO-X26])DF-NH2) gave an IC50 of 7000 nM.
`CN(C(=O)[C@H](CC(=O)O)NC(=O)[C@H](CCCCNC(=O)c1ccc2cc(O)ccc2c1)NC(=O)[C@H](Cc1c[nH]c2ccccc12)NC(=O)OC(C)(C)C)[C@@H](Cc1ccccc1)C(N)=O` [Example 19, t-BOC-Trp-Lys(ε-N-(6-hydroxy-β-naphthoyl))-Asp-(NMe)PheNH2] (Boc-WK(2Naphthoyl(6-OH))D[NMeF]-NH2) was tested, and the IC50 was 730 nM.
Compound `CC(C)c1ccccc1NC(=O)NCCCC[C@H](NC(=O)[C@H](Cc1c[nH]c2ccccc12)NC(=O)OC(C)(C)C)C(=O)N[C@@H](CC(=O)O)C(=O)N[C@@H](Cc1ccccc1)C(N)=O` [Example 41, t-BOC-Trp-Lys(ε-N-(2-isopropylphenyl)aminocarbonyl)-Asp-PheNH2] (Boc-WK([CO-X24])DF-NH2) has an IC50 of 5700 nM.

The compounds below were run against T2, Type-A CCK receptor (Cavia porcellus, UniProt Q63931) (assay: Radioligand binding of [125I]BH-CCK-8 in guinea pig pancreatic membrane preparations). Conditions: not given.
T2 construct: Cortical and pancreatic membranes were prepared as described; from tissue; host or cells: guinea pig pancreas membranes
T2 sequence (Q63931 1-430): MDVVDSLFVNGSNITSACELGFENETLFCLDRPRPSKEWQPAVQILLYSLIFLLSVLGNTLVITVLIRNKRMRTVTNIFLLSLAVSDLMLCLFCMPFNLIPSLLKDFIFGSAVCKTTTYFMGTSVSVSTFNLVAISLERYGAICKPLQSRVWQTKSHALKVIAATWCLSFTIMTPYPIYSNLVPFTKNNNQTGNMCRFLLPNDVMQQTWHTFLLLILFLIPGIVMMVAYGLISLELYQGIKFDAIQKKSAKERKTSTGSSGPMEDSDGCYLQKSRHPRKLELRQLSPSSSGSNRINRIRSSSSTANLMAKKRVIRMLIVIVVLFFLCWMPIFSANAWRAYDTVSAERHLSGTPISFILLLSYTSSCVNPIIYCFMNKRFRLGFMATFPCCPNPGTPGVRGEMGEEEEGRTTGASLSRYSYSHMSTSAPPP
Text: as §1, §2, §3, §4
For `CC(C)(C)OC(=O)N[C@@H](Cc1c[nH]c2ccccc12)C(=O)N[C@@H](CCCCNC(=O)C=Cc1ccc(Cl)c(Cl)c1)C(=O)N[C@@H](CC(=O)O)C(=O)N[C@@H](Cc1ccccc1)C(N)=O` [Example 15, t-BOC-Trp-Lys(ε-N-(3,4-dichlorocinnamoyl))-Asp-PheNH2] (Boc-WK(X11)DF-NH2), the IC50 was 65 nM.
`Cc1ccc(/C=C/C(=O)NCCCC[C@H](NC(=O)[C@H](Cc2c[nH]c3ccccc23)NC(=O)OC(C)(C)C)C(=O)N[C@@H](CC(=O)O)C(=O)N[C@@H](Cc2ccccc2)C(N)=O)cc1` [Example 6, t-BOC-Trp-Lys(ε-N-(4-methylcinnamoyl))-Asp-PheNH2] (Boc-WK(X7)DF-NH2) was tested, and the IC50 was 71 nM.
For `CN(C(=O)[C@H](CC(=O)O)NC(=O)[C@H](CCCCNC(=O)/C=C/c1ccc(Cl)cc1)NC(=O)[C@H](Cc1c[nH]c2ccccc12)NC(=O)OC(C)(C)C)[C@@H](Cc1ccccc1)C(N)=O` [Example 18, t-BOC-Trp-Lys(ε-N-(4-chlorocinnamoyl))-Asp-(NMe)PheNH2] (Boc-WK(X18)D[NMeF]-NH2), the IC50 was 22 nM.
`CC(C)(C)OC(=O)N[C@@H](Cc1c[nH]c2ccccc12)C(=O)N[C@@H](CCCCNC(=O)C=Cc1ccc(O)c(O)c1)C(=O)N[C@@H](CC(=O)O)C(=O)N[C@@H](Cc1ccccc1)C(N)=O` [Example 14, t-BOC-Trp-Lys(ε-N-(3,4-dihydroxycinnamoyl))-Asp-PheNH2] (Boc-WK(X8)DF-NH2) gave an IC50 of 33 nM.
`Cc1ccccc1NC(=O)NCCCC[C@H](NC(=O)[C@H](Cc1c[nH]c2ccccc12)NC(=O)OC(C)(C)C)C(=O)N(C)[C@@H](CC(=O)O)C(=O)N[C@@H](Cc1ccccc1)C(N)=O` [Example 60, t-BOC-Trp-Lys(ε-N-(2-methylphenyl)aminocarbonyl)-(NMe)Asp-PheNH2] (Boc-WK([CO-NH(2-Me-phenyl)])[NMeD]F-NH2) gave an IC50 of 4.3 nM.
Compound `CC(C)(C)OC(=O)N[C@@H](Cc1c[nH]c2ccccc12)C(=O)N[C@@H](CCCCNC(=O)C=Cc1ccc(F)cc1)C(=O)N[C@@H](CC(=O)O)C(=O)N[C@@H](Cc1ccccc1)C(N)=O` [Example 7, t-BOC-Trp-Lys(ε-N-(4-fluorocinnamoyl))-Asp-PheNH2] (Boc-WK(X13)DF-NH2) has an IC50 of 65 nM.
Work on `CC(C)(C)OC(=O)N[C@@H](Cc1c[nH]c2ccccc12)C(=O)N[C@@H](CCCCNC(=O)Nc1ccccc1[N+](=O)[O-])C(=O)N[C@@H](CC(=O)O)C(=O)N[C@@H](Cc1ccccc1)C(N)=O` [Example 34, t-BOC-Trp-Lys(ε-N-(2-nitrophenyl)aminocarbonyl)-Asp-PheNH2] (Boc-WK([CO-X14])DF-NH2) yielded an IC50 of 23 nM.
In the case of `CC(C)(C)OC(=O)N[C@@H](Cc1c[nH]c2ccccc12)C(=O)N[C@@H](CCCCNC(=O)CCc1ccc(O)cc1)C(=O)N[C@@H](CC(=O)O)C(=O)N[C@@H](Cc1ccccc1)C(N)=O` [Example 1, t-BOC-Trp-Lys(ε-N-(3-(4-hydroxyphenyl)propionyl))-Asp-PheNH2] (Boc-WK(Desaminotyrosyl)DF-NH2), the IC50 is reported as 124 nM.
`CC(C)(C)OC(=O)N[C@@H](Cc1c[nH]c2ccccc12)C(=O)N[C@@H](CCCCNC(=O)Nc1ccccc1Br)C(=O)N[C@@H](CC(=O)O)C(=O)N[C@@H](Cc1ccccc1)C(N)=O` [Example 36, t-BOC-Trp-Lys(ε-N-(2-bromophenyl)aminocarbonyl)-Asp-PheNH2] (Boc-WK([CO-X19])DF-NH2) showed an IC50 of 7 nM.
With `Cc1ccccc1/N=C(/S)NCCCC[C@H](NC(=O)[C@H](Cc1c[nH]c2ccccc12)NC(=O)OC(C)(C)C)C(=O)N[C@@H](CC(=O)O)C(=O)N[C@@H](Cc1ccccc1)C(N)=O` [Example 38, t-BOC-Trp-Lys(ε-N-(2-methylphenyl)aminothiocarbonyl)-Asp-PheNH2] the IC50 was 230 nM.
`CC(C)(C)OC(=O)N[C@@H](Cc1c[nH]c2ccccc12)C(=O)N[C@@H](CCCCNC(=O)C=Cc1cccc(O)c1)C(=O)N[C@@H](CC(=O)O)C(=O)N[C@@H](Cc1ccccc1)C(N)=O` [Example 5, t-BOC-Trp-Lys(ε-N-(3-hydroxycinnamoyl))-Asp-PheNH2] (Boc-WK(X21)DF-NH2) was tested, and the IC50 was 37 nM.

Same assay, conditions: guinea pig pancreatic membranes, 37° C., 150 min; read-out: IC50 (nM) 125I-BH-CCK-8 Type-A receptor
Compound `CN(C(=O)[C@H](CC(=O)O)NC(=O)[C@H](CCCCNC(=O)C=Cc1ccc(O)cc1)NC(=O)[C@H](Cc1c[nH]c2ccccc12)NC(=O)OC(C)(C)C)[C@@H](Cc1ccccc1)C(N)=O` [Example 17, t-BOC-Trp-Lys(ε-N-(4-hydroxycinnamoyl))-Asp-(NMe)PheNH2] (Boc-WK(X1)D[NMeF]-NH2) has an IC50 of 7 nM.
`COc1ccccc1NC(=O)NCCCC[C@H](NC(=O)[C@H](Cc1c[nH]c2ccccc12)NC(=O)OC(C)(C)C)C(=O)N[C@@H](CC(=O)O)C(=O)N[C@@H](Cc1ccccc1)C(N)=O` [Example 43, t-BOC-Trp-Lys(ε-N-(2-methoxyphenyl)aminocarbonyl)-Asp-PheNH2] (Boc-WK([CO-X16])DF-NH2) gave an IC50 of 23 nM.
